One may read the EC50 as the midpoint of the concentration-response curve.

Our source for the EC50 values is US10201531B2, “Indazolyl-oxo-isothiazole compounds” (MOCHIDA PHARMACEUTICAL CO., LTD., priority 2015, dated 2019).

The subject of this test is Nrf2. Description: Evaluation of Nrf2 activation ability (Nrf2d-LacZ / Keap1 HEK293 reporter, Beta-Glo luminescence). The class given is cell-based, human. In short, it runs like this:
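HEK293 cells stably expressing a human Nrf2 degron–LacZ fusion plus human Keap1 were exposed to compound for 3 h at 37° C. Reporter β-galactosidase was read by Beta-Glo luminescence after 1 h at RT. Activation is given as % of the signal with 100 nM CDDO-Im.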

Setting [1] is: rated A/B/C, Pharmacological Test Example 1.
The mark [2] stands for this setting: Pharmacological Test Example 1, rated A/B/C.

SMILES strings stand for the structures.

In the case of `O=C(C1CC1(F)F)N1CCOc2cc(-c3ccc4c(cnn4-c4cc(O)n[s+]4[O-])c3)cnc21` (stereo not shown) [Example 151], under setting [1], the EC50 is < 1 µM. The same measure, in the same setting: for `Cn1cc(-c2ccc3c(cnn3-c3cc(O)n[s+]3[O-])c2)ccc1=O` (stereo not shown) [Example 171] the value was 5 to 10 µM; for `[O-][s+]1nc(O)cc1-n1ncc2c(C3=CCOCC3)cccc21` (stereo not shown) [Example 95], 5 to 10 µM. Still for that read-out and setting: for `[O-][s+]1nc(O)cc1-n1ncc2cc(-c3ccc(N4CCOCC4)nc3)ccc21` (stereo not shown) [Example 126] the value was 1 to 5 µM. As for `[O-][s+]1nc(O)cc1-n1cc(-c2ccc(Oc3ccccc3)cc2)cn1` (stereo not shown) [Example 378], under setting [2], the half-maximal effective concentration (EC50) was < 1 µM.

Consider `[O-][s+]1nc(O)cc1-n1ncc2c(-c3ccc(N4CCCC4)nc3)cccc21` (stereo not shown) [Example 107], for which the EC50 under setting [1] was in the range of 1 to 5 µM. The same measure, in the same setting: for `O=C(NC1CC1)c1ccc(F)c(-c2ccc3c(cnn3-c3cc(O)n[s+]3[O-])c2)c1` (stereo not shown) [Example 63] the value was 5 to 10 µM. For `Cc1cncc(-c2cnn(-c3cc(O)n[s+]3[O-])c2)c1` (stereo not shown) [Example 401], the EC50 under setting [2] fell in the range of 5 to 10 µM.

For `CC(=O)NC1(c2ccc(-c3ccc4c(cnn4-c4cc(O)n[s+]4[O-])c3)cc2)CC1` (stereo not shown) [Example 65], the half-maximal effective concentration (EC50) under setting [1] is 5 to 10 µM.

For `COc1nc(-c2ccnc(N3CCCC3)c2)ccc1-c1cnn(-c2cc(O)n[s+]2[O-])c1` (stereo not shown) [Example 454], the EC50 under setting [2] is < 1 µM.

`[O-][s+]1nc(O)cc1-n1ncc2cc(-c3ccc(N4CCCC4)nc3)ccc21` (stereo not shown) [Example 87] came in with a concentration giving a half-maximal response (EC50) under setting [1] of 1 to 5 µM. On to `[O-][s+]1nc(O)cc1-n1cc(-c2cnccn2)cn1` (stereo not shown) [Example 407], for which the EC50 under setting [2] is 1 to 5 µM. On to `CC1(C)COc2cc(-c3ccc4c(cnn4-c4cc(O)n[s+]4[O-])c3)cnc2N1` (stereo not shown) [Example 217], for which the 50% effective concentration (EC50) under setting [1] was < 1 µM. On the same count and under the same terms, for `CN1CCOc2ncc(-c3ccc4c(cnn4-c4cc(O)n[s+]4[O-])c3)cc21` (stereo not shown) [Example 165] the value was 1 to 5 µM. For `CC1(C)C(=O)N(c2cnn(-c3cc(O)n[s+]3[O-])c2)c2ccccc21` (stereo not shown) [Example 420], under setting [2], the EC50 fell in the range of 1 to 5 µM. As for `[O-][s+]1nc(O)cc1-n1ncc2cc(Cl)ccc21` (stereo not shown) [Example 12], under setting [1], the EC50 is < 1 µM. In the case of `COC(=O)c1ccccc1-c1cnn(-c2cc(O)n[s+]2[O-])c1` (stereo not shown) [Example 330], the concentration for a half-maximal effect (EC50) under setting [2] lay within 1 to 5 µM. Take `O=C(NC1CCCCC1)N1CCC(c2ccc3c(cnn3-c3cc(O)n[s+]3[O-])c2)CC1` (stereo not shown) [Example 159]: under setting [1], the EC50 is 5 to 10 µM.

Molecule `[O-][s+]1nc(O)cc1-n1cc2cc(OCc3cccnc3)ccc2n1` (stereo not shown) [Example 445] had an EC50 under setting [2] of 1 to 5 µM. The same measure, in the same setting: in the case of `Cn1ncc2c(-c3cnn(-c4cc(O)n[s+]4[O-])c3)cccc21` (stereo not shown) [Example 360] it was < 1 µM; in that of `CN(C)Cc1cccc(-c2cnn(-c3cc(O)n[s+]3[O-])c2)c1` (stereo not shown) [Example 406], 5 to 10 µM. Turning to `Nc1ccc(-c2ccc3c(cnn3-c3cc(O)n[s+]3[O-])c2)cn1` (stereo not shown) [Example 45], under setting [1], the EC50 is 1 to 5 µM. On the same count and under the same terms, for `[O-][s+]1nc(O)cc1-n1ncc2cc(-c3cccnc3)ccc21` (stereo not shown) [Example 54] the value was < 1 µM. Take `Cc1cncc(-c2cnn(-c3cc(O)n[s+]3[O-])c2)n1` (stereo not shown) [Example 416]: the EC50 under setting [2] lay in the range of 1 to 5 µM. With `[O-][s+]1nc(O)cc1-n1ncc2cc(-c3ccccn3)ccc21` (stereo not shown) [Example 43], the concentration giving a half-maximal response (EC50) under setting [1] was < 1 µM. Still for that read-out and setting: in the case of `Cc1cccc2c1cnn2-c1cc(O)n[s+]1[O-]` (stereo not shown) [Example 23] it was 1 to 5 µM. On the same count and under the same terms, for `COc1cc(-c2cccc3c2cnn3-c2cc(O)n[s+]2[O-])ccn1` (stereo not shown) [Example 97] the value was 1 to 5 µM; for `[O-][s+]1nc(O)cc1-n1ncc2nc(-c3ccc(N4CCCC4)nc3)ccc21` (stereo not shown) [Example 240], 1 to 5 µM. Under setting [2], `O=c1oc2cc(-c3cnn(-c4cc(O)n[s+]4[O-])c3)ccc2n1CC1CC1` (stereo not shown) [Example 429] registered a concentration giving a half-maximal response (EC50) of 1 to 5 µM. Under setting [1], `[O-][s+]1nc(O)cc1-n1ncc2c(-c3ccc(C4CC4)nc3)cccc21` (stereo not shown) [Example 98] showed a 50% effective concentration (EC50) of 1 to 5 µM. Same read-out and setting: for `[O-][s+]1nc(O)cc1-n1ncc2cc(-c3ccc(N4CCC(F)(F)C4)nc3)ccc21` (stereo not shown) [Example 182] the value was < 1 µM. The same measure, in the same setting: for `CC(C)(C)OC(=O)N1CC=C(c2cnn(-c3cc(O)n[s+]3[O-])c2)CC1` (stereo not shown) [Example 304] the value was 1 to 5 µM; for `[O-][s+]1nc(O)cc1-n1ncc2cc(-c3ccccc3)ccc21` (stereo not shown) [Example 28], 1 to 5 µM. On to `[O-][s+]1nc(O)cc1-n1cc2cc(-c3cnccn3)ccc2n1` (stereo not shown) [Example 417], for which, under setting [2], the EC50 lay in the range of 1 to 5 µM.

Under setting [1], `N#Cc1cccc(-c2ccc3c(cnn3-c3cc(O)n[s+]3[O-])c2)n1` (stereo not shown) [Example 120] gave an EC50 of 1 to 5 µM.

As for `COc1cc(-c2ccncc2)cc2c1cnn2-c1cc(O)n[s+]1[O-]` (stereo not shown) [Example 200], under setting [1], the EC50 fell in the range of 1 to 5 µM. Still for that read-out and setting: for `CN1CCOc2nc(-c3ccc4c(cnn4-c4cc(O)n[s+]4[O-])c3)ccc21` (stereo not shown) [Example 179] the value was < 1 µM. Under setting [2], `N#CC1(c2ccc(-c3cnn(-c4cc(O)n[s+]4[O-])c3)cc2)CC1` (stereo not shown) [Example 369] yielded an EC50 of 1 to 5 µM.

For the molecule `[O-][s+]1nc(O)cc1-n1ncc2cc(-c3cccnc3)ccc21` (stereo not shown) [Example 38], under setting [1], the EC50 is < 1 µM.

In the case of `Cn1ccc(-c2ccc3c(cnn3-c3cc(O)n[s+]3[O-])c2)n1` (stereo not shown) [Example 226], the EC50 under setting [1] is < 1 µM.

As to `COc1cccc2c1cnn2-c1cc(O)n[s+]1[O-]` (stereo not shown) [Example 191], the concentration giving a half-maximal response (EC50) under setting [1] is 1 to 5 µM. Consider `[O-][s+]1nc(O)cc1-n1cc(-c2cc(C(F)(F)F)cc(C(F)(F)F)c2)cn1` (stereo not shown) [Example 368], for which, under setting [2], the EC50 is < 1 µM. Consider `COc1ccc(-c2ccc3c(cnn3-c3cc(O)n[s+]3[O-])c2)c(C)n1` (stereo not shown) [Example 6], for which, under setting [1], the EC50 lay within 1 to 5 µM.

On to `[O-][s+]1nc(O)cc1-n1ncc2ccncc21` (stereo not shown) [Example 231], for which, under setting [1], the half-maximal effective concentration (EC50) lay in the range of 5 to 10 µM. With `CN1CCOc2cc(-c3cnn(-c4cc(O)n[s+]4[O-])c3)ccc21` (stereo not shown) [Example 347], the EC50 under setting [2] was < 1 µM.

In turn, `COc1cncc(-c2cnn(-c3cc(O)n[s+]3[O-])c2)c1` (stereo not shown) [Example 398] came in with an EC50 under setting [2] of 1 to 5 µM. `[O-][s+]1nc(O)cc1-n1ncc2c(Cl)cccc21` (stereo not shown) [Example 29]: the half-maximal effective concentration (EC50) under setting [1] lay within 1 to 5 µM. On the same count and under the same terms, in the case of `CN1CCOc2cc(-c3ccc4c(c3)c(C3CC3)nn4-c3cc(O)n[s+]3[O-])cnc21` (stereo not shown) [Example 216] it was 1 to 5 µM. The same measure, in the same setting: for `[O-][s+]1nc(O)cc1-n1ncc2cc(Oc3ccccc3)ccc21` (stereo not shown) [Example 148] the value was 1 to 5 µM.
